Measurements published in patent US9624182B2, “Compounds as lysophosphatidic acid receptor antagonists” (Amira Pharmaceuticals, Inc., priority 2009, dated 2017).

Molecular target: T1, human LPA1 (Homo sapiens, UniProt Q92633)
T1 construct: the full-length cDNA for human LPA1 was obtained by PCR of the reverse transcription reaction; expressed in transfected cells
Experiment: LPA1 calcium flux assay
Format: cell-based
Conditions: CHO cells expressing human LPA1, stimulated with 10 nM LPA; read-out: HLPA1 Ca Flux IC50
How it was run: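 CHO cells stably expressing cloned human LPA1, serum-starved overnight, loaded with Calcium 4 dye 1 h at 37 °C in HBSS/20 mM Hepes with 0.3% fatty-acid-free HSA. Compounds preincubated 30 min at room temperature, then cells stimulated with 10 nM LPA; intracellular Ca2+ read by fluorescence. IC50 from titration curves.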

T1 sequence (Q92633 whole entry): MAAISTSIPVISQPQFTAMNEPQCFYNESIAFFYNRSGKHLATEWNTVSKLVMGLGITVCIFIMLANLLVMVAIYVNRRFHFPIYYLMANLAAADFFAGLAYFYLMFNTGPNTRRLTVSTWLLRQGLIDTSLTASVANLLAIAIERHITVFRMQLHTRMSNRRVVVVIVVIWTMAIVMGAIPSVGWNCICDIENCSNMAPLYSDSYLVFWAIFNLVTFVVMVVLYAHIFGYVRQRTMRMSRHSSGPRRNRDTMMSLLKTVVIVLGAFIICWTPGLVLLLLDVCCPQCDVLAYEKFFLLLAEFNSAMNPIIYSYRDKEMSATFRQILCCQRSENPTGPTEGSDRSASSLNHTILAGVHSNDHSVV

SMILES | IC50 [nM]
COc1cccc(Nc2c(C)noc2-c2ccc(-c3ccc(C4(C(=O)O)CC4)cc3)cc2)n1 [Compound 1-304, 1-{4′-[4-(6-Methoxy-pyridin-2-ylamino)-3-methyl-isoxazol-5-yl]-biphenyl-4-yl}-cyclopropanecarboxylic acid] | < 300
Cc1noc(-c2ccc(-c3cccc(C(=O)O)c3)cc2)c1CNC(=O)OCc1ccccc1 [Compound 1-305, 4′-[4-(Benzyloxycarbonylamino-methyl)-3-methyl-isoxazol-5-yl]-biphenyl-3-carboxylic acid] | 1000 to 50000
Cc1noc(-c2ccc(-c3ccc(C#CC(=O)O)cc3)cc2)c1N[C@@H](C)CCc1cccc(C(F)(F)F)c1 [Compound 1-307, (4′-{3-Methyl-4-[(S)-1-methyl-3-(3-trifluoromethyl-phenyl)-propylamino]-isoxazol-5-yl}-biphenyl-4-yl)-propynoic acid] | 300 to 1000
CC(=O)c1cccc(Nc2c(C)noc2-c2ccc(-c3ccc(C4(C(=O)O)CC4)cc3)cc2)n1 [Compound 1-311, 1-{4′-[4-(6-Acetyl-pyridin-2-ylamino)-3-methyl-isoxazol-5-yl]-biphenyl-4-yl}-cyclopropanecarboxylic acid] | < 300
Cc1noc(-c2ccc(-c3ccc(C4(C(=O)NS(C)(=O)=O)CC4)cc3)cc2)c1[C@@H](COCc1ccccc1)OC(=O)NS(C)(=O)=O [Compound 2-4, N-Sulfonylmethyl carbamic acid (S)-2-benzyloxy-1-{5-[4′-(1-methanesulfonylaminocarbonyl-cyclopropyl)-biphenyl-4-yl]-3-methyl-isoxazol-4-yl}-ethyl ester] | < 300
Cc1ccc(S(=O)(=O)NC(=O)Nc2c(C)noc2-c2ccc(-c3ccc(C4(C(=O)NS(=O)(=O)c5ccc(C)cc5)CC4)cc3)cc2)cc1 [Compound 2-5, 4-Methyl-N-(1-{4′-[3-methyl-4-(3-p-tolunesulfonyl-ureido)-isoxazol-5-yl]-biphenyl-4-yl}-cyclopropanecarbonyl)-benzenesulfonamide] | > 50000

The remaining lines, values ahead:

IC50 [nM] | SMILES
< 300 | Cc1onc(-c2ccc(-c3ccc(C4(CC(=O)O)CC4)cc3)cc2)c1CSCCc1ccccc1 [Compound 1-306, {1-[4′-(5-Methyl-4-phenethylsulfanylmethyl-isoxazol-3-yl)-biphenyl-4-yl]-cyclopropyl}-acetic acid]
< 300 | Cc1noc(-c2ccc(-c3ccc(C4(C(=O)O)CC4)cc3)cc2)c1NC(=O)Nc1cccc(Br)c1 [Compound 1-308, 1-(4′-{4-[3-(3-Bromo-phenyl)-ureido]-3-methyl-isoxazol-5-yl}-biphenyl-4-yl)-cyclopropanecarboxylic acid]
1000 to 50000 | Cc1noc(-c2ccc(-c3ccc(C4(C(=O)O)CC4)cc3)cc2)c1Nc1cccc(OC(C)C)[n+]1[O-] [Compound 1-309, 1-{4′-[4-(6-Isopropoxy-1-oxy-pyridin-2-ylamino)-3-methyl-isoxazol-5-yl]-biphenyl-4-yl}-cyclopropanecarboxylic acid]
< 300 | Cc1noc(-c2ccc(-c3ccc(C4(C(=O)O)CC4)cc3)cc2)c1Nc1cncc(OC(C)C)c1 [Compound 1-310, 1-{4′-[4-(5-Isopropoxy-pyridin-3-ylamino)-3-methyl-isoxazol-5-yl]-biphenyl-4-yl}-cyclopropanecarboxylic acid]
< 300 | Cc1noc(-c2ccc(-c3ccc(C4(C(=O)O)CC4)cc3)cc2)c1Nc1cccc(C(N)=O)n1 [Compound 1-312, 1-{4′-[4-(6-Carbamoyl-pyridin-2-ylamino)-3-methyl-isoxazol-5-yl]-biphenyl-4-yl}-cyclopropanecarboxylic acid]
< 300 | Cc1noc(-c2ccc(-c3ccc(C4(C(=O)O)CC4)cc3)cc2)c1Nc1cccc(Br)n1 [Compound 1-313, 1-{4′-[4-(6-Bromo-pyridin-2-ylamino)-3-methyl-isoxazol-5-yl]-biphenyl-4-yl}-cyclopropanecarboxylic acid]
